Laboratory results reported in patent US20260207777A1, “IMPROVED PEPTIDE INHIBITORS OF P53 BINDING PROTEIN 53BP1” (KAMAU THERAPEUTICS, INC., priority 2022, published 2026).

Assays:
Assay type in all cases: cell-based, human
CD34+ HSPCs [1] = assay: editing of CD34+ HSPCs with purified i53 variant proteins and HBB-UBC-GFP AAV donor; flow cytometry; settings: HBB locus; protein 0.4 mg/mL; MOIs 625 and 2500; both donors
Description: Chemically-modified single guide RNAs (sgRNAs) used to edit CD34+ HSPCs at the HBB locus were purchased from Synthego. The sgRNA sequences were modified by adding 2′-O-methyl-3′-phosphorothioate at the three terminal nucleotides of the 5′ and 3′ ends. The target sequence for the HBB sgRNA is as follows: HBB: 5′[…]-3′ (SEQ ID NO: 74). Cas9 protein (SpyFi Cas9) was purchased from Aldevron. The RNPs were complexed at a Cas9:sgRNA molar ratio of 1:2.5 at 25° C. for 10-15 min prior to electroporation. Cells were collected, counted, and pelleted at 180 g×7 min. The cell pellets were resuspended in Maxcyte buffer with complexed RNPs and electroporated using a Maxcyte EXPERT ATx Nucleofector. After electroporation cells were plated at 3.5×10^5 cells/mL in media supplemented with cytokines and the desired AAV donor added at 5.0×10^2-2.5×10^4 vector genomes/cell. 24 h after nucleofection, cells were spun down, washed once with media, and seeded into AAV-free media at a density of 3.5×10^5 cells/mL.
CD34+ HPSCs were edited with protein variants 3 days post thaw and were harvested 2 days post nucleofection for NGS analysis or 3-5 days post nucleofection for GFP expression analysis. Editing reactions with proteins at a given concentration were repeated in duplicate or triplicate (either using the same CD34+ HSPC donor or across multiple donors).
Rates of targeted integration of the HBB UBC GFP donor were measured using a Beckman Coulter CytoFLEX. DAPI (Miltenyi Biotec) was used to discriminate live and dead cells. Flow cytometry data were analyzed using FlowJo 10 software.

CD34+ HSPCs [2] = assay: GFP knock-in at the HBA locus with purified i53 variants and HBA-UBC-GFP AAV; flow cytometry; settings: HBA locus; protein 0.4 mg/mL; MOIs 625 and 2500; both donors
Text: (§1) Chemically-modified single guide RNAs (sgRNAs) were used to edit CD34+ HSPCs at the HBA, CCR5, and IL2RG loci. The sgRNA sequences were modified by adding 2′-O-methyl-3′-phosphorothioate at the three terminal nucleotides of the 5′ and 3′ ends. The target sequences for the HBA, CCR5, and IL2RG sgRNA are as follows: HBA: 5′-[…]-3′ (SEQ ID NO: 78), CCR5: 5′-[…]-3′ (SEQ ID NO: 79) IL2RG: 5′-[…]-3′ (SEQ ID NO: 80). Cas9 protein (SpyFi Cas9) was purchased from Aldevron. The RNPs were complexed at a Cas9:sgRNA molar ratio of 1:2.5 at 25° C. for 10-15 min prior to electroporation. Cells were collected, counted, and pelleted at 180 g×7 min. The cell pellets were resuspended in Maxcyte buffer with complexed RNPs and electroporated using a Maxcyte EXPERT ATx Nucleofector. After electroporation cells were plated at 3.5×10^5 cells/mL in media supplemented with cytokines and the desired AAV donor added at 5.0×10^2-2.5×10^4 vector genomes/cell. 24 h after nucleofection, cells were spun down, washed once with media, and seeded into AAV-free media at a density of 3.5×10^5 cells/mL. […]
(§2) Rates of targeted integration of the HBA-UBC-GFP, CCR5-UBC-GFP, and IL2RG-UBC-GFP donors were measured using a Beckman Coulter CytoFLEX. […] Flow cytometry data were analyzed using FlowJo 10 software.

CD34+ HSPCs [3] = assay: GFP knock-in at the IL2RG locus with purified i53 variants and IL2RG-UBC-GFP AAV; flow cytometry; settings: protein 0.4 mg/mL, MOIs 625 and 2500, both donors
Text: as §1, §2

CD34+ HSPCs [4] = assay: lentiviral-based pooled functional screen of i53 variant libraries at the HBB locus; NGS enrichment in mCherry+GFP+ vs mCherry+GFP- cells; settings: MOI=2500
Description: CD34+ HSPC cells were transduced using lentivirus at MOIs of 0.25-1 at day 1 post thaw. Cells were concentrated using centrifugation (180 g×7 min), counted, and added at a concentration of 4×10^6 cells/mL to media containing lentivirus, cyclosporin A (5 μM, Sigma Aldrich) and Synperonic F108 (0.5 mg/mL, Sigma Aldrich). After 4 h of incubation, cells were spun down, washed once with media, and seeded into lentivirus-free media at a density of 3.5×10^5 cells/mL.
Chemically-modified single guide RNAs (sgRNAs) used to edit CD34+ HSPCs at the HBB locus were purchased from Synthego. […] Cells were collected, counted, and pelleted at 180 g×7 min. […]
Three days after transduction, cells were edited in triplicate or quadruplet at HBB as described above, using HBB-UBB-GFP donor AAV6 (MOI of 2.5×10^4 vector genomes/cell). […] The DNA concentration of each sample was measured using a Qubit 1×dsDNA BR assay kit (ThermoFisher).
An amplicon sequencing workflow was designed to sequence and quantify i53 variants within starting and post selection pools. […]
This approach was used to confirm sequence diversity in plasmid and lentiviral libraries prior to screening. For screening data analyses, a first quality control was performed on all runs to validate good values in number of mapped reads (>1e5 reads per sample), percent reads carried over from parent (from cloning), and overall distribution of sequences (no bias). […]

CD34+ HSPCs [5] = assay: GFP knock-in at the CCR5 locus with purified i53 variants and CCR5-UBC-GFP AAV; flow cytometry; settings: CCR5 locus; protein 0.4 mg/mL; MOIs 625 and 2500; both donors
Text: as §1, §2

Substance | % GFP incorporation relative to the no protein control (CD34+ HSPCs [1]) | % GFP incorporation relative to the no protein control (CD34+ HSPCs [2]) | % GFP incorporation relative to the no protein control (CD34+ HSPCs [3]) | differential variant enrichment in the mCherry+GFP+ population relative to parent L67H (CD34+ HSPCs [4]; combinatorial library at positions 12 and 14, iterating on L67H) | % GFP incorporation relative to the no protein control (CD34+ HSPCs [5]) | differential variant enrichment in the mCherry+GFP+ population relative to parent L67R (CD34+ HSPCs [4]; combinatorial library at positions 12 and 14, parent L67R)
T12V.T14H.L67H: purified hit mutant of i53 | increase % GFP incorporation relative to the no protein control | increase % GFP incorporation relative to the no protein control | increase % GFP incorporation relative to the no protein control | emerged as hits relative to parent L67H | increase % GFP incorporation relative to the no protein control | 
T12Y.T14E.L67R: purified hit mutant of i53 | increase % GFP incorporation relative to the no protein control | increase % GFP incorporation relative to the no protein control | increase % GFP incorporation relative to the no protein control |  | increase % GFP incorporation relative to the no protein control | particularly beneficial to HDR levels at HBB relative to parent T12 T14 L67R
